Experimental data reported in patent US11566007B2, “Ras inhibitors” (Revolution Medicines, Inc., priority 2019, dated 2023).
Where two headings read alike, the source gives them in different places.

How the values were obtained:
KRAS G13D = KRAS G13D (Homo sapiens (Human), UniProt P01116+P62937, G13D); assay: Ras-Raf (BRAF RBD) disruption / FRET / MOA assay, KRAS G13D; type: biochemical; details: read-out: IC50* KRAS G13D FRET data
Outline: (§1)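 Ternary complex formation (Ras–compound–cyclophilin A) displacing BRAF RBD, monitored by TR-FRET. Three hours at 25° C with compound (top 30 μM final), then 1.5 h with the labelled antibodies. Lower ratio than DMSO indicates disruption; IC50 reported.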

K-Ras G13C = K-Ras G13C (Homo sapiens (Human), UniProt P01116+P62937, G13C); assay: Ras-Raf (BRAF RBD) disruption / FRET / MOA assay, KRAS G13C; type: biochemical; details: KRAS G13C; Ras-Raf disruption/FRET/MOA assay; read-out: IC50* KRAS G13C FRET data
Outline: as §1

K-Ras G12C = K-Ras G12C (Homo sapiens (Human), UniProt P01116+P62937, G12C); assay: Ras-Raf (BRAF RBD) disruption / FRET / MOA assay, KRAS G12C; type: biochemical; details: KRAS G12C; Ras-Raf disruption/FRET/MOA assay; read-out: IC50* KRAS G12C FRET data
Outline: as §1

NCI-H358 (K-Ras G12C) = assay: CellTiter-Glo cell viability assay, NCI-H358; type: cell-based, human; details: NCI-H358, 5-day treatment, class symbols, read-out: Additional H358 Cell Viability assay data (K-Ras G12C, IC50)
Outline: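 Viability of K-Ras mutant lines is measured by ATP luminescence after five days of compound treatment. Percent of DMSO control is calculated and dose-response data are fitted with a four-parameter logistic equation.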

KRAS G12D = KRAS G12D (Homo sapiens (Human), UniProt P01116+P62937, G12D); assay: Ras-Raf (BRAF RBD) disruption / FRET / MOA assay, KRAS G12D; type: biochemical; details: Ras-Raf disruption/FRET/MOA assay; class symbols; read-out: KRAS G12D FRET data IC50
Outline: as §1

NRAS G12C = NRAS G12C (Homo sapiens (Human), UniProt P01111+P62937, G12C); assay: Ras-Raf (BRAF RBD) disruption / FRET / MOA assay, NRAS G12C; type: biochemical; details: read-out: IC50* NRAS G12C FRET data
Outline: as §1

KRAS WT = KRAS WT (Homo sapiens (Human), UniProt P01116+P62937); assay: Ras-Raf (BRAF RBD) disruption / FRET / MOA assay, KRAS WT; type: biochemical; details: read-out: IC50* KRAS WT FRET data
Outline: as §1

KRAS G12S = KRAS G12S (Homo sapiens (Human), UniProt P01116+P62937, G12S); assay: Ras-Raf (BRAF RBD) disruption / FRET / MOA assay, KRAS G12S; type: biochemical; details: Ras-Raf disruption/FRET/MOA assay; class symbols; read-out: KRAS G12S FRET data IC50
Outline: as §1

KRAS G12V = KRAS G12V (Homo sapiens (Human), UniProt P01116+P62937, G12V); assay: Ras-Raf (BRAF RBD) disruption / FRET / MOA assay, KRAS G12V; type: biochemical; details: read-out: IC50* KRAS G12V FRET data
Outline: as §1

Chain of KRAS G12S (P01116-2 other isoform, or with tags, fused parts or gaps G12S): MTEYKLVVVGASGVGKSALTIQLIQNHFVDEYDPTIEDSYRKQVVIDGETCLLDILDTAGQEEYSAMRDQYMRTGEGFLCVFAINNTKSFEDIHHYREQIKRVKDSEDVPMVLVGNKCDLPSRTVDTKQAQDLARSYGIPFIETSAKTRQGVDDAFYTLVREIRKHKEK
Chain of KRAS G12S (P62937 whole entry): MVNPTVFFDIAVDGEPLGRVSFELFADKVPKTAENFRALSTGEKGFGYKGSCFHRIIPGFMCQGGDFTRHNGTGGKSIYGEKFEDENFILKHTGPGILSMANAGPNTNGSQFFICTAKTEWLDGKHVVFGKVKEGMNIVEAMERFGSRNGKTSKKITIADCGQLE
Chain of K-Ras G13C (P01116-2 other isoform, or with tags, fused parts or gaps G13C): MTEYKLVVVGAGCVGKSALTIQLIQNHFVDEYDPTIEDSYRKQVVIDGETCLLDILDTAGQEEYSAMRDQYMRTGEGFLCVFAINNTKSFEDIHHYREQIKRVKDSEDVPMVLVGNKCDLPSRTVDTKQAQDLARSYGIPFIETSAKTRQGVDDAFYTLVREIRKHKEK
Chain of K-Ras G13C (P62937 whole entry): as the sequence (P62937 whole entry) above
Chain of NRAS G12C (P01111 whole entry G12C): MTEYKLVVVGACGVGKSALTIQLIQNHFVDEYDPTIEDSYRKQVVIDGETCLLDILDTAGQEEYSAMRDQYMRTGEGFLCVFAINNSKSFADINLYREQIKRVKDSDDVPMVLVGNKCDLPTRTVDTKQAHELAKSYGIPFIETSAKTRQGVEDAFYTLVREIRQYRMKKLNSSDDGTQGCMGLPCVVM
Chain of NRAS G12C (P62937 whole entry): as the sequence (P62937 whole entry) above
Chain of KRAS WT (P01116-2 other isoform, or with tags, fused parts or gaps): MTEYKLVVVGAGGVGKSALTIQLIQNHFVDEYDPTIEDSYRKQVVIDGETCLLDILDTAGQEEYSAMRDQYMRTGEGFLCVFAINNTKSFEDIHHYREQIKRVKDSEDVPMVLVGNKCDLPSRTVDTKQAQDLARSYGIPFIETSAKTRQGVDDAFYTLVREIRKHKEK
Chain of KRAS WT (P62937 whole entry): as the sequence (P62937 whole entry) above
Chain of KRAS G12V (P01116-2 other isoform, or with tags, fused parts or gaps G12V): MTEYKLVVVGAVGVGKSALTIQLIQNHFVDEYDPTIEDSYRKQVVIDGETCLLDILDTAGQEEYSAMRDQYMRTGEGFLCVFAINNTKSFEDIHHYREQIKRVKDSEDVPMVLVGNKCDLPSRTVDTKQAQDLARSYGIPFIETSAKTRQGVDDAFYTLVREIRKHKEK
Chain of KRAS G12V (P62937 whole entry): as the sequence (P62937 whole entry) above
Chain of KRAS G12D (P01116-2 other isoform, or with tags, fused parts or gaps G12D): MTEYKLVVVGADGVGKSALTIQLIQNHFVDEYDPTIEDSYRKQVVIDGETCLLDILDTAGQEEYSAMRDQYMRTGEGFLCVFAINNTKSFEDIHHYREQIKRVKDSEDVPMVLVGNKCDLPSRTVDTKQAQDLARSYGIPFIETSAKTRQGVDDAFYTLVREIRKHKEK
Chain of KRAS G12D (P62937 whole entry): as the sequence (P62937 whole entry) above
Chain of KRAS G13D (P01116-2 other isoform, or with tags, fused parts or gaps G13D): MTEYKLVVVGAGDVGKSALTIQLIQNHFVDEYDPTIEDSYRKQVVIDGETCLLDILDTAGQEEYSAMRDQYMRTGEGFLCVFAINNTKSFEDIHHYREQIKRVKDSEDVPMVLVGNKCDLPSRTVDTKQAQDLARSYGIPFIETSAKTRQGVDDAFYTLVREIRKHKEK
Chain of KRAS G13D (P62937 whole entry): as the sequence (P62937 whole entry) above
Chain of K-Ras G12C (P01116-2 other isoform, or with tags, fused parts or gaps G12C): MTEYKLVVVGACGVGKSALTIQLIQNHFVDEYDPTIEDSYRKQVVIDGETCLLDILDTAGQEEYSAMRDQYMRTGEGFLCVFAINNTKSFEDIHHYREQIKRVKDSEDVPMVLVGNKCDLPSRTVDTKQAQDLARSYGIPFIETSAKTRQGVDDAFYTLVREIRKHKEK
Chain of K-Ras G12C (P62937 whole entry): as the sequence (P62937 whole entry) above

| IC50 (NCI-H358 (K-Ras G12C)) [µM] | SMILES | IC50 (KRAS G13D) [µM] | IC50 (K-Ras G13C) [µM] | IC50 (K-Ras G12C) [µM] | IC50 (NCI-H358 (K-Ras G12C); Homo sapiens, NCI-H358, 120 h) [µM] | IC50 (KRAS G12D) [µM] | IC50 (NRAS G12C) [µM] | IC50 (KRAS WT) [µM] | IC50 (KRAS G12S) [µM] | IC50 (KRAS G12V) [µM] |
| --- | --- | --- | --- | --- | --- | --- | --- | --- | --- | --- |
| – | C=CC(=O)N1CC[C@H](C(=O)N(C)[C@H](C(=O)N[C@H]2Cc3nc(cs3)-c3ccc4c(c3)c(c(-c3cccnc3[C@H](C)OC)n4CC)CC(C)(C)C/C=C/[C@@H]3CCCN(N3)C2=O)C(C)C)C1 (atropisomer, axis not shown) [Example A286] | > 10 | > 10 | > 10 | > 1 | > 10 | > 10 | > 10 | > 10 | > 10 |
| – | C=CC(=O)N1CC[C@H](C(=O)N(C)[C@H](C(=O)N[C@H]2Cn3cnc(n3)-c3ccc4c(c3)c(c(-c3cccnc3[C@H](C)OC)n4CC)CC(C)(C)COC(=O)[C@@H]3CCCN(N3)C2=O)C(C)C)C1 (atropisomer, axis not shown) [Example A506] | > 10 | 1 to 10 | 0.1 to 1 | 0.1 to 1 | > 10 | 0.1 to 1 | 1 to 10 | 1 to 10 | 1 to 10 |
| – | C=CC(=O)N1CC[C@H](C(=O)N(C)[C@H](C(=O)N[C@H]2CC3=NN=C(S3)c3ccc4c(c3)c(c(-c3cccnc3COC)n4CC)CC(C)(C)COC(=O)[C@@H]3CCCN(N3)C2=O)C(C)C)C1 [Example A236] | > 10 | > 10 | > 10 | > 1 | > 10 | > 10 | > 10 | > 10 | > 10 |
| – | C/C=C(\C)S(=O)(=O)N1CC[C@H](C(=O)N(C)[C@H](C(=O)N[C@H]2Cc3cccc(c3)-c3ccc4c(c3)c(c(-c3cccnc3[C@H](C)OC)n4CC)CC(C)(C)COC(=O)[C@@H]3CCCN(N3)C2=O)C(C)C)C1 (atropisomer, axis not shown) [Example A308] | > 10 | 1 to 10 | > 10 | 0.1 to 1 | > 10 | > 10 | > 10 | > 10 | > 10 |
| – | C=CC(=O)N1CC[C@H](C(=O)Nc2ccccc2C(=O)N[C@H]2Cc3cc(O)cc(c3)-c3ccc4c(c3)c(c(-c3cnccc3COC)n4CC)CC(C)(C)COC(=O)[C@@H]3CCCN(N3)C2=O)C1 [Example A229] | > 10 | > 10 | 0.1 to 1 | > 1 | > 10 | 1 to 10 | > 10 | > 10 | > 10 |
| – | C=CC(=O)N1CC[C@H](C(=O)N(C)[C@H](C(=O)N[C@H]2Cc3cccc(c3)-c3ccc4c(c3)c(c(-c3cnccc3[C@H](C)OC)n4CC)CC(C)(C)COC(=O)[C@@H]3CCCN(N3)C2=O)C(C)C)C1 [Example A122] | > 10 | > 10 | > 10 | > 1 | > 10 | > 10 | > 10 | > 10 | > 10 |
| – | C=CC(=O)N1CC[C@H](C(=O)N(C)[C@H](C(=O)N[C@H]2Cc3cc(O)cc(c3)-c3ccc4c(c3)c(c(-c3cccnc3CNC)n4CC)CC(C)(C)COC(=O)[C@@H]3CCCN(N3)C2=O)C(C)C)C1 [Example A137] | > 10 | > 10 | 0.1 to 1 | > 1 | > 10 | 0.1 to 1 | 1 to 10 | 1 to 10 | 1 to 10 |
| – | C=CC(=O)N1CC[C@H](C(=O)N(C)[C@H](C(=O)N(C)[C@H]2Cc3cc(O)cc(c3)-c3ccc4c(c3)c(c(-c3cccnc3COC)n4CC)CC(C)(C)COC(=O)[C@@H]3CCCN(N3)C2=O)C(C)C)C1 [Example A230] | > 10 | > 10 | > 10 | > 1 | > 10 | > 10 | > 10 | > 10 | > 10 |
| – | C=CC(=O)N1CC[C@H](C(=O)N(C)[C@H](C(=O)N[C@H]2Cc3cc(OC4O[C@H](CO)[C@@H](O)[C@H](O)[C@H]4O)cc(c3)-c3ccc4c(c3)c(c(-c3cccnc3COC)n4CC)CC(C)(C)COC(=O)[C@@H]3CCCN(N3)C2=O)C(C)C)C1 (stereo partly drawn) [Example A234] | > 10 | > 10 | > 10 | > 1 | > 10 | > 10 | > 10 | > 10 | > 10 |
| – | C=CC(=O)N1CC[C@H](C(=O)N(C)[C@H](C(=O)N[C@@H]2C(=O)N3CCC[C@H](N3)C(=O)OCC(C)(C)Cc3c(-c4cncnc4)n(CC)c4ccc(cc34)-c3cccc(c3)[C@@H]2OC)C(C)C)C1 [Example A271] | > 10 | > 10 | > 10 | > 1 | > 10 | > 10 | > 10 | > 10 | > 10 |
| – | C=CC(=O)N1CC[C@H](C(=O)N(C)[C@H](C(=O)N[C@H]2Cc3ncc(n3C)-c3ccc4c(c3)c(c(-c3cccnc3[C@H](C)OC)n4CC)CC(C)(C)COC(=O)[C@@H]3CCCN(N3)C2=O)C(C)C)C1 (atropisomer, axis not shown) [Example A276] | > 10 | > 10 | 1 to 10 | > 1 | > 10 | 1 to 10 | > 10 | > 10 | > 10 |
| – | C=CC(=O)N1CC(O[C@H](C(=O)N[C@H]2Cc3cc(O)cc(c3)-c3ccc4c(c3)c(c(-c3cccnc3COC)n4CC)CC(C)(C)COC(=O)[C@@H]3CCCN(N3)C2=O)C(C)C)C1 [Example A235] | > 10 | 1 to 10 | 1 to 10 | > 1 | > 10 | 1 to 10 | > 10 | > 10 | > 10 |
| – | C=CC(=O)N1CC[C@H](C(=O)N(C)[C@H](C(=O)N[C@H]2Cc3cccc(c3)-c3ccc4c(c3)c(c(-c3cc(CN(C)C)cnc3[C@H](C)OC)n4CC)CC(C)(C)COC(=O)[C@@H]3CCCN(N3)C2=O)C(C)C)C1 [Example A523] | > 10 | > 10 | 1 to 10 | 0.1 to 1 | > 10 | 1 to 10 | > 10 | > 10 | > 10 |
| > 1 | CCn1c(-c2cccnc2COC)c2c3cc(ccc31)-c1cc(O)cc(c1)C[C@H](NC(=O)[C@H](C(C)C)N(C)C(=O)[C@H]1CCC(C(=O)/C=C\CN(C)C)C1)C(=O)N1CCC[C@H](N1)C(=O)OCC(C)(C)C2 (stereo partly drawn) [Example A161] | 1 to 10 | 1 to 10 | 0.1 to 1 | – | > 10 | 0.1 to 1 | 1 to 10 | 1 to 10 | 1 to 10 |
| – | C=CC(=O)N1CC(OCC(C(=O)N[C@H]2Cc3cc(cc(C(F)F)c3)-c3ccc4c(c3)c(c(-c3cccnc3[C@H](C)OC)n4CC(F)(F)F)CC(C)(C)COC(=O)[C@@H]3CCCN(N3)C2=O)C(C)C)C1 (mixture of isomers) [Example A428] | > 10 | > 10 | > 10 | > 1 | > 10 | > 10 | > 10 | > 10 | > 10 |
| > 1 | CCn1c(-c2cccnc2[C@H](C)OC)c2c3cc(ccc31)-c1cccc(c1)C[C@H](NC(=O)[C@H](C(C)C)N(C)C(=O)[C@H]1CCN(C(=O)/C=C/CN3CC(OC)C3)C1)C(=O)N1CCC[C@H](N1)C(=O)OCC(C)(C)C2 (atropisomer, axis not shown) [Example A203] | > 10 | > 10 | 1 to 10 | – | > 10 | 1 to 10 | > 10 | > 10 | > 10 |

| SMILES | IC50 (NCI-H358 (K-Ras G12C)) [µM] | IC50 (KRAS G13D) [µM] | IC50 (K-Ras G13C) [µM] | IC50 (K-Ras G12C) [µM] | IC50 (NCI-H358 (K-Ras G12C); Homo sapiens, NCI-H358, 120 h) [µM] | IC50 (KRAS G12D) [µM] | IC50 (NRAS G12C) [µM] | IC50 (KRAS WT) [µM] | IC50 (KRAS G12S) [µM] | IC50 (KRAS G12V) [µM] |
| --- | --- | --- | --- | --- | --- | --- | --- | --- | --- | --- |
| C=CC(=O)N1CC[C@H](C(=O)N(C)[C@H](C(=O)N[C@H]2Cc3cccc(c3)-c3ccc4c(c3)c(c(-c3cc(C5CCN(C)CC5)cnc3[C@H](C)OC)n4CC)CC(C)(C)COC(=O)[C@@H]3CCCN(N3)C2=O)C(C)C)C1 (atropisomer, axis not shown) [Example A516] | > 1 | > 10 | 1 to 10 | 1 to 10 | – | > 10 | 1 to 10 | > 10 | > 10 | > 10 |
